{
  "source": "patent US8198332B2",
  "about": "“Salicylamide derivatives as nicotinic alpha 7 modulators” (Roche Palo Alto LLC, priority 2008, dated 2012)",
  "target": "T1, human nicotinic alpha7 WT receptor (Homo sapiens, UniProt P36544)",
  "T1 construct": "expressed in transfected cells; host or cells: GH4C1 cells (rat pituitary-derived cell line), RPA clone #34.7",
  "T1 sequence (P36544 23-502)": "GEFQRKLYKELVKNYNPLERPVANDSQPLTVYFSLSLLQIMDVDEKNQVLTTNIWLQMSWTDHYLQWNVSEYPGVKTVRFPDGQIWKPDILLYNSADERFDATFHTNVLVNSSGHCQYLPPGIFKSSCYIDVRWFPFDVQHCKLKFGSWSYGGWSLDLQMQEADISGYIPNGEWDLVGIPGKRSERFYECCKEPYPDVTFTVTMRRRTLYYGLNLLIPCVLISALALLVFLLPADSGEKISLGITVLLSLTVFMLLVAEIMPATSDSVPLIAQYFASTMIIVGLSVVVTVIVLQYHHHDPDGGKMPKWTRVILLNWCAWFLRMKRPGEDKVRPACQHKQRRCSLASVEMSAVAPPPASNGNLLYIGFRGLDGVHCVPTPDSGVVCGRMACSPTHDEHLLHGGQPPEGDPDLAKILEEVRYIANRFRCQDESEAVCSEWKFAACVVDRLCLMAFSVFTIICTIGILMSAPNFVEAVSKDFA",
  "experiment": "Nicotinic alpha 7 modulation assay (FLIPR, cytosolic Ca2+ elevation, FLUO-3)",
  "type": "cell-based",
  "method": "Cell Culture Growth Media: F10 medium (Invitrogen), 2.5% Fetal Bovine Serum (FBS, Summit Biotechnology); 15% heat inactivated donor Horse Serum (Invitrogen), 250 μg/ml Hygromycin B (Invitrogen); and 100 nM Methyllicaconite (MLA, Sigma) are added to each new culture by 50-fold dilution of stock solution prepared in H2O at […].\nGH4C1 cells (rat pituitary-derived cell line) stably expressing human nicotinic alpha7 WT receptor (RPA clone #34.7) are cultivated in cell culture growth media (described above) at 37 C in a humidified atmosphere containing 4% CO2. […]\nThe alpha 7 nAChR assay is a cell-based functional readout designed to determine the effect of test compounds to either directly activate nicotinic receptor channels and/or to modulate activation by the native agonist acetylcholine (ACh, Sigma). […]\nAssay of test compound effect on activation of the alpha7 nicotinic receptor channel is done by measurement of cytosolic [Ca^2+] elevation as reported by increased FLUO-3 fluorescence using a two addition experimental design and FLIPR™ (Molecular Devices). Following a 30 second baseline recording, test compounds are added online (dilution scheme below) and cell response is recorded for an additional 5 minutes. After a second addition of ACh (30 μM, FAC), plates are read for an additional 4 minutes. […]",
  "data": [
    {"smiles": "C#CC1(NC(=O)c2cc(-c3ccc(OC)cc3C)ccc2OCC2CC2)CCCCC1", "note": "[I-6, 4-Cyclopropylmethoxy-4′-methoxy-2′-methyl-biphenyl-3-carboxylic acid (1-ethynyl-cyclohexyl)-amide]", "values": [
      {"measurement": "EC50", "result": 0.22, "unit": "µM"},
      {"measurement": "positive allosteric modulation", "setting": "GH4C1 cells stably expressing human nicotinic alpha7 WT receptor, FLIPR, second addition of ACh 30 μM", "result": 255, "unit": "%"}
    ]}
  ]
}
